Read-outs that look alike come from different tables or passages of the source. Peptide text beside a SMILES is read from it. * marks the point of attachment. Cbz = O=C(OCc1ccccc1)*; CH2F = FC*
How the values were obtained:
BE(2)-C cells [1] = assay: Caspase-3-like protease (DEVD-ase) activity assay; assay type: cell-based, human; conditions: 6 d after HDAC10 siRNA; z-VAD 20 μM, 3-MA 2 mM
Experimental: Caspase-3-like protease activity assay. Caspase-3-like protease activity was measured with the Caspase-3 Fluorometric Assay (BioVision) according to the manufacturer's protocol modified as described previously (Oehme et al. (2006), op. cit.). For cell death detection adherent as well as floating cells were collected.

BE(2)-C cells [2] = assay: Acridine orange FACS quantification of acidic lysosomes; assay type: cell-based, human; conditions: for accumulation of acidic lysosomes (red fluorescence) by a panel of HDAC inhibitors: FIG. 1B, each inhibitor at its applied concentration (Table 1)
Experimental: For quantification of acidic lysosomes, the amount of green respectively red fluorescence was determined, since the acidification of (auto-)lysosomes causes a shift from green to red fluorescence. […] Therefore, the cytoplasm and nucleolus glow bright green, whereas acidic compartments shine bright red. By comparing the mean red-to-green fluorescence ratio within different cell populations, detection and quantification of the acidic compartment is possible. Cells were stained with phenol red-free medium containing 1 μg/ml acridine orange (Sigma) at 37° C. for 30 min, collected and resuspended in 300 μl phenolred-free medium for FACS analysis.

[3] = system: Neuroblastoma cells, medulloblastoma cells (BE(2)-C, Kelly, IMR32, Med8A); assay: WST-1 metabolic activity assay, tumor cells; assay type: cell-based, human; conditions: FIG. 13E; bufexamac 30 μM 6 d, co-treated with low-dose doxorubicin 72 h before assay
Experimental: (§1) WST-1 Assay. Metabolic activity was determined using the colorimetric WST-1 assay kit from Roche (Mannheim, Germany) as described in the manufacturer's manual.

HDAC10 [4] = molecular target: T1, HDAC10 (Homo sapiens, UniProt Q969S8); conditions: read-out: IC50 HDAC10 from literature; cited from earlier work
T1 construct: Reaction Biology Corporation
T1 sequence (Q969S8 1-669): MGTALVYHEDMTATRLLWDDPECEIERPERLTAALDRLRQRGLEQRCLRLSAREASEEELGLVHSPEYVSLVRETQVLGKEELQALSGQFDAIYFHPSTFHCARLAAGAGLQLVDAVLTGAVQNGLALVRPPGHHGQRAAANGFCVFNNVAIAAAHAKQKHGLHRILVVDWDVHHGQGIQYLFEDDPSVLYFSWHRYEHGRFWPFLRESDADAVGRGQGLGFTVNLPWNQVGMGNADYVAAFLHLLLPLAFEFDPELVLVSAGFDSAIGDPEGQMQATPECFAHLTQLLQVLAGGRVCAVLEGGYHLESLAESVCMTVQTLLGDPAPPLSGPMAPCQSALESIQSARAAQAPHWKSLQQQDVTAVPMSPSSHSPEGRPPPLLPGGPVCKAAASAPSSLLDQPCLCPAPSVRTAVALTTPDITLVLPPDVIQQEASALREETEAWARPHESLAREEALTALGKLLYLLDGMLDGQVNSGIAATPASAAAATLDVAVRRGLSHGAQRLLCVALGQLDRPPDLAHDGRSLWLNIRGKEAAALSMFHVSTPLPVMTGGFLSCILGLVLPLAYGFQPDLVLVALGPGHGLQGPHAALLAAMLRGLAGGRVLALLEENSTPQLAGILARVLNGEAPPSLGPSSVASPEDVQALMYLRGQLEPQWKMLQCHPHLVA

BE(2)-C cells [5] = assay: WST-1 metabolic activity assay; assay type: cell-based, human
Experimental: as §1

astrocytes = assay: Acridine orange FACS quantification of acidic lysosomes; assay type: cell-based; conditions: FIG. 1D; human astrocytes, compared with neuroblastoma cells
Experimental: For quantification of acidic lysosomes, the amount of green respectively red fluorescence was determined, since the acidification of (auto-)lysosomes causes a shift from green to red fluorescence. Acridine orange accumulates in lysosomal particles and the quenching of its fluorescence correlates with the DpH across the lysosomal membrane (Moriyama, Y, Takano, T and Ohkuma, S, (1982) Acridine orange as a fluorescent probe for lysosomal proton pump. J Biochem 92: 1333-6). Therefore, the cytoplasm and nucleolus glow bright green, whereas acidic compartments shine bright red. By comparing the mean red-to-green fluorescence ratio within different cell populations, detection and quantification of the acidic compartment is possible. Cells were stained with phenol red-free medium containing 1 μg/ml acridine orange (Sigma) at 37° C. for 30 min, collected and resuspended in 300 μl phenolred-free medium for FACS analysis. The green (510-530 nm) and the red (>650 nm) fluorescent emission of living cells, stimulated with blue laser (488 nm), were measured with FACSCalibur (Becton Dickinson, San José, Calif.) and analyzed with CellQuest Pro.

BE(2)-C cells [6] = assay: ROS detection with CM-H2DCFDA by flow cytometry; assay type: cell-based, human; conditions: for effect on ROS production by HDAC10 targeting: 72 h after HDAC10 siRNA transfection
Experimental: ROS generation was quantified using CM-H2DCFDA (Molecular Probes) according to the manufacturer's instructions. Cells were incubated for 20 min with 5 μM dye and fluorescence intensity was measured with FACSCalibur and analyzed with CellQuest Pro.

Kelly cells = assay: WST-1 metabolic activity assay; assay type: cell-based, human; conditions: NAC on day 4 and 5, measured day 6
Experimental: as §1

HDAC10 [7] = molecular target: T1, HDAC10; assay: In vitro HDAC10 activity assay by Reaction Biology Corporation; assay type: biochemical; conditions: read-out: IC50 HDAC10 from RBC
Excerpt: The inhibitory activity of compounds toward HDAC10 was investigated by Reaction Biology Corporation (Malvern, Pa., USA).

IMR32 cells = assay: Cell death by trypan blue staining; assay type: cell-based, human; conditions: FIG. 13A, 0.01, 0.05, 0.1 μg/ml, 24, 48, 72 h, among BE(2)-C, Kelly
Experimental: (§2) Viability assay. Trypsinized cells were pooled with corresponding supernatant, centrifuged and resuspended in 1.5 ml cell culture media. Cell viability was measured by automated trypan blue staining with Vi-Cell XR Cell Viability Analyzer from Beckman Coulter (Krefeld, Germany).

BE(2)-C cells [8] = assay: Cell death by trypan blue staining; assay type: cell-based, human; conditions: FIG. 13A; 0.01, 0.05, 0.1 μg/ml; 24, 48, 72 h; among BE(2)-C, Kelly, IMR32
Experimental: as §2

BE(2)-C cells [9] = assay: Western blot of p62 protein levels (autophagic flux); assay type: cell-based, human; conditions: FIG. 13C; high-dose doxorubicin 0.5 μg/ml, 48 h
Experimental: Western blot analysis was performed as described previously (Oehme et al. (2009), op. cit.). The following antibodies were used: anti-HDAC10 (Sigma), anti-LC3 (Sigma), anti-HDAC6 (Cell Signaling), anti-p62/SQSTM1 (MLB), anti-Hsc70 (Santa Cruz), anti-FLAG-M2 (Sigma) anti-GAPDH (Millipore), anti-Ac-Lysine (rabbit, Cell Signaling) and anti-β-Actin (clone AC-15, Sigma). β-Actin expression served as loading control. Ratios were calculated with the Bio-1D (Version 12.10a) Software. Protein extracts from primary neuroblastoma tumors from patients with the following characteristics were used: NB#1: […], stage 1, MYCN single copy. NB#2: […], stage 1, MYCN single copy. NB#3: […], stage 4, MYCN single copy. NB#4: […], stage 4, MYCN single copy.

## Cn1cnc(=N)c2[nH]cnc21 [3-MA]
BE(2)-C cells [1]
  effect on HDAC10-knockdown mediated apoptosis (caspase-3 like activity): did not affect the induction of cell death upon targeting of HDAC10

## CO/C1=C\C(C)=C\[C@@H](C)[C@@H](O)[C@@H](C)C/C(C)=C/C=C/[C@H](OC)[C@@H]([C@@H](C)[C@@H](O)[C@H](C)[C@@]2(O)C[C@@H](O)[C@H](C)[C@@H](C(C)C)O2)OC1=O [Bafilomycin A1]
BE(2)-C cells [2]; FIG. 2, co-treatment Baf.A 10 nM with TSA 75 nM
  effect on TSA-induced shift to red fluorescence: inhibited the TSA-induced shift to red fluorescence
BE(2)-C cells [2]; FIG. 4A, Baf. A 10 nM, HDAC10 siRNA
  effect on lysosome acidification induced by HDAC10 knockdown: blocked lysosome acidification induced by HDAC10 knockdown

## CCCCOc1ccc(CC(=O)NO)cc1 [Bufexamac, 2-(4-butoxyphenyl)-N-hydroxyacetamide]
[3]
  metabolic activity (WST-1): significantly decreased metabolic activity
HDAC10 [4]
  IC50: 12.3 µM
BE(2)-C cells [5]; BE(2)C cells
  effect of bufexamac in NB cells compared to the knockdown of HDAC10 expression: rather low
BE(2)-C cells [5]; FIG. 9E, bufexamac 100 μM 3 days, co-treated with doxorubicin 0.1 μg/ml 24 h before assay
  metabolic activity (WST-1): strongly reduced metabolic activity
BE(2)-C cells [2]; BE(2)-C
  accumulation of acidic lysosomes (red fluorescence) by a panel of HDAC inhibitors: significant increase in red fluorescence
astrocytes
  shift to red fluorescence (acidic lysosomes): very moderate shift to red fluorescence

## CCN(CC)CCCC(C)Nc1ccnc2cc(Cl)ccc12 (centres unmarked) [Chloroquine]
BE(2)-C cells [2]; FIG. 2, FIG. 5C, BE(2)-C, chloroquine 25 μM, rapamycin 100 nM
  induction of acidic lysosomes and late endosomes: served as positive controls for the induction of acidic lysosomes and late endosomes

## CC(=O)N(O)CCCCCNC(=O)CCC(=O)N(O)CCCCCNC(=O)CCC(=O)N(O)CCCCCN [DFO]
BE(2)-C cells [6]
  effect on ROS production by HDAC10 targeting: inhibited

## CC(=O)N[C@@H](CS)C(=O)O [NAC]
BE(2)-C cells [6]
  effect on ROS production by HDAC10 targeting: inhibited
BE(2)-C cells [5]; BE(2)-C, NAC on day 4 and 5, measured day 6
  viability (metabolic activity) upon HDAC10 knockdown: restored viability of NB cells
Kelly cells
  viability (metabolic activity) upon HDAC10 knockdown: restored viability of NB cells

## CN(C)Cc1c(C(=O)NCCOc2ccc(C(=O)NO)cc2)oc2ccccc12 [PCI-24781, 3-(dimethylaminomethyl)-N-[2-[4-(hydroxycarbamoyl)-phenoxy]ethyl]-1-benzofuran-2-carboxamide]
BE(2)-C cells [2]; BE(2)-C
  accumulation of acidic lysosomes (red fluorescence) by a panel of HDAC inhibitors: significant increase in red fluorescence

## COc1ccc(Cn2ccc3ccc(C(=O)NO)cc32)cc1 [PCI-34051]
BE(2)-C cells [2]; BE(2)-C
  accumulation of acidic lysosomes (red fluorescence) by a panel of HDAC inhibitors: did not

## Cc1[nH]c2ccccc2c1CCNCc1ccc(/C=C/C(=O)NO)cc1 [Panobinostat (LBH589), (2E)-N-hydroxy-3-[4-({[2-(2-methyl-1H-indol-3-yl)ethyl]amino}methyl)phenyl]acrylamide]
BE(2)-C cells [2]; BE(2)-C
  accumulation of acidic lysosomes (red fluorescence) by a panel of HDAC inhibitors: significant increase in red fluorescence

## CC(C=CC(=O)NO)=CC(C)C(=O)c1ccc(N(C)C)cc1 (centres unmarked) [TSA, 7-[4-(dimethylamino)phenyl]-N-hydroxy-4,6-dimethyl-7-oxohepta-2,4-dienamide]
BE(2)-C cells [6]; TSA 75 nM, 24 h
  ROS generation: TSA-induced ROS generation
BE(2)-C cells [2]; BE(2)-C
  accumulation of acidic lysosomes (red fluorescence) by a panel of HDAC inhibitors: significant increase in red fluorescence

## O=C(CCCCCCC(=O)Nc1ccc([C@H]2O[C@@H](CSc3nc(-c4ccccc4)c(-c4ccccc4)o3)C[C@@H](c3ccc(CO)cc3)O2)cc1)NO [Tubacin]
BE(2)-C cells [2]; BE(2)-C
  accumulation of acidic lysosomes (red fluorescence) by a panel of HDAC inhibitors: did not increase the amount of red fluorescent cells

## CCCC(CCC)C(=O)O [VPA, valproic acid]
HDAC10 [7]
  IC50: > 10000 µM
BE(2)-C cells [2]; BE(2)-C
  accumulation of acidic lysosomes (red fluorescence) by a panel of HDAC inhibitors: did not increase the amount of red fluorescent cells

## O=C(CCCCCCC(=O)Nc1ccccc1)NO [Vorinostat (SAHA), N-hydroxy-N′-phenyl-octanediamide]
BE(2)-C cells [2]; BE(2)-C
  accumulation of acidic lysosomes (red fluorescence) by a panel of HDAC inhibitors: significant increase in red fluorescence

## COc1cccc2c1C(=O)c1c(O)c3c(c(O)c1C2=O)C[C@@](O)(C(=O)CO)C[C@@H]3O[C@H]1C[C@H](N)[C@H](O)[C@H](C)O1 [doxorubicin]
IMR32 cells
  sensitivity towards doxorubicin treatment (cell death, % trypan blue positive): highest sensitivity
BE(2)-C cells [8]
  sensitivity towards doxorubicin treatment (cell death, % trypan blue positive): highest resistance
BE(2)-C cells [9]
  autophagic flux, measurable by p62 degradation: enhanced autophagic flux

## CN1C(=O)C(Cc2c[nH]c3ccccc23)NC1=S (centres unmarked) [necrostatin]
BE(2)-C cells [5]; 6 d post-transfection, necrostatin 50 μM in combination with z-VAD 20 μM
  viability (metabolic activity) upon HDAC10 knockdown: completely rescue

## CC(NC(=O)C(NC(=O)OCc1ccccc1)C(C)C)C(=O)NC(CC(=O)O)C(=O)CF (stereo not drawn) [zVAD] (Cbz-Val-Ala-Asp-CH2F; configuration not given here)
BE(2)-C cells [1]
  effect on HDAC10-knockdown mediated apoptosis (caspase-3 like activity): abolished HDAC10-knockdown mediated induction of apoptosis
BE(2)-C cells [5]; 6 d post-transfection, z-VAD 20 μM on day 4 and 5
  viability (metabolic activity) upon HDAC10 knockdown: partly restored viability
